From BindingDB's records for PubMed 6655559 (University of California, 1983) come the findings set out here.

Values joined by “and” are separate entries in the source; they are usually repeats but may differ in a detail not shown here. Identical values can stand only once.

The target of assay [1] is D(2) dopamine receptor (Oryctolagus cuniculus, UniProt G1T1Q0).
The target in assay [2] is D(2) dopamine receptor (Rattus norvegicus, UniProt P61169).
D(2) dopamine receptor (Rattus norvegicus, UniProt P61169), sequence (P61169 whole entry): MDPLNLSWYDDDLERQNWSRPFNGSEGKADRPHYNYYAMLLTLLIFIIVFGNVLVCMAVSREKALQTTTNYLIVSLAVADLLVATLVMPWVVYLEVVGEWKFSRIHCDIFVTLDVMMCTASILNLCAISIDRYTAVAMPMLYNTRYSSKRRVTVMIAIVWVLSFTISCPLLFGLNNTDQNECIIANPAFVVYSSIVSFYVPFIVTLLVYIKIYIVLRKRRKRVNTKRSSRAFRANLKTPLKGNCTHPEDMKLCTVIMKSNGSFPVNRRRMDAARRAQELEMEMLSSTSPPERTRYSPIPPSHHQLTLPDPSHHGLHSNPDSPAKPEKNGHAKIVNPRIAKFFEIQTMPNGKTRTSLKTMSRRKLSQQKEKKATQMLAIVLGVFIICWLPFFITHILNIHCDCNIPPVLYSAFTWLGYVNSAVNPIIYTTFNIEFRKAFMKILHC

D(2) dopamine receptor (Oryctolagus cuniculus, UniProt G1T1Q0), sequence (G1T1Q0 whole entry): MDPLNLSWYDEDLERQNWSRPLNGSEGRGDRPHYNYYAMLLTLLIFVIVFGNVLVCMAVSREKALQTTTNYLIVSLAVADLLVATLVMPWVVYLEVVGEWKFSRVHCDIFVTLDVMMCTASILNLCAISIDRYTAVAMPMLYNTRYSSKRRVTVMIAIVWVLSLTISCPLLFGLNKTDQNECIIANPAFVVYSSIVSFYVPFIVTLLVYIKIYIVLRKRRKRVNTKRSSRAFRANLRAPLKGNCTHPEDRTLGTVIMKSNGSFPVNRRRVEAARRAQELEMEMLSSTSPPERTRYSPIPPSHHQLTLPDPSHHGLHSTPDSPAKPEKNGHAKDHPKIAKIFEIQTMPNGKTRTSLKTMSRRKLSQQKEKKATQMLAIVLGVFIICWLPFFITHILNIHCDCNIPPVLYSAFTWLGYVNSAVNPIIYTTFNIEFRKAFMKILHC

As to `CCCN(CCC)CCc1ccc(O)c(O)c1`, the Ki in assay [1] was 37 nM and 85 nM; in assay [2] it was 130 nM.

For `O=c1[nH]c2ccccc2n1CCCN1CCC(n2c(=O)[nH]c3cc(Cl)ccc32)CC1`, the Ki in assay [1] was 3.3 nM and 4.9 nM.

`NCCc1ccc(O)c(O)c1`: in assay [1], the inhibitory constant (Ki) is 250 nM and 200 nM.

In the case of `O=C(c1ccc(F)cc1)C1CCN(CCn2c(=O)[nH]c3ccccc3c2=O)CC1` [3-(2-{4-[(4-fluorophenyl)carbonyl]piperidin-1-yl}ethyl)-1,2,3,4-tetrahydroquinazoline-2,4-dione], the Ki is 880 nM in assay [1]; 720 nM and 580 nM in assay [2].

As to `Nc1nc2c(ncn2[C@@H]2O[C@H](COP(=O)(O)OP(=O)(O)OP(=O)(O)O)[C@@H](O)[C@H]2O)c(=O)[nH]1` [Dopamine+ (GTP+)], in assay [2], the Ki was 1300 nM and 2900 nM.

Turning to `Cc1ccc(N(CC2=NCCN2)c2cccc(O)c2)cc1` [SMR000059054], the Ki in assay [1] was 1200 nM; in assay [2], 1500 nM and 750 nM.

In general, Ki refers to a measure of affinity in units of concentration, obtained from inhibition or displacement. Read a high Ki as lower affinity.
